One data set deals with T1, Human CYP1A1 (Homo sapiens, UniProt P04798).
T1 construct: purchased Sumitomo Chemical; host or cells: recombinant yeast, microsomal fraction
T1 sequence (P04798 1-512): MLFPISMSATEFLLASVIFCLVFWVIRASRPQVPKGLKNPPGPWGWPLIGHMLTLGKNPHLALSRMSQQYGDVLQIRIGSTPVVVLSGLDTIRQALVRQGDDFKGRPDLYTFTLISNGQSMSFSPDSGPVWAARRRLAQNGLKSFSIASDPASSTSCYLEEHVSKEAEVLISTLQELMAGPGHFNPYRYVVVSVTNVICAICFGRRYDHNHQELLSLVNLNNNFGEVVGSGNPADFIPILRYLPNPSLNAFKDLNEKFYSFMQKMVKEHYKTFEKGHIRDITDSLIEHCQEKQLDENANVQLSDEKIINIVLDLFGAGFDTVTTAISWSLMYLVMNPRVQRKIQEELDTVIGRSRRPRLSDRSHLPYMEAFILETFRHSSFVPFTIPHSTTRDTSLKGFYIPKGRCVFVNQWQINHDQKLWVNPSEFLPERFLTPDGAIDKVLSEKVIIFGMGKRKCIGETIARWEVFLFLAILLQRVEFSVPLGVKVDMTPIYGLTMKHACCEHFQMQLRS
Briefly: Metabolism of herbicides in microsomes of recombinant yeast expressing human P450. It is filed as in vitro ADME.

The test system of data set [1] is microsomal fraction of Control plants. In words: 7-ethoxyresorufin O-deethylation activity using a microsomal fraction. It is filed as biochemical, Solanum tuberosum cv. MayQueen. How it is done:
(§1) A reaction was initiated by adding 7-ethoxyresorufin to the concentration of 10 μM to a reaction solution containing 0.1 M potassium phosphate buffer (pH 7.4), 3 mM NADPH, and 1 mg/ml microsomal fractions at the final concentrations. The mixture was incubated at 37° C. for 30 min, ice-cooled acetone was added thereto, and allowed to stand on ice for 10 min. The supernatant was measured using the fluorometer (excitation wavelength of 550 nm, and emission of 586 nm).
(§2) Inhibition of activity by addition of carbon monoxide and absence of NADPH indicated P450-dependency. On the other hand, an increased activity was not observed in S1972 or S1974. […] In the table, “EROD activity” of (a) indicates 7-ethoxyresorufin O-deethylase activity (pmol/min/mg of protein) and means±standard deviations in three independent experiments. In (b), the values indicate the activities in the presence of carbon monoxide. In (c), the values indicate the activities in the absence of NADPH.

Data set [2] deals with T2, microsomal fraction of S1965 (human CYP1A1) (Homo sapiens, UniProt P04798).
T2 construct: expressed in transfected cells; host or cells: transgenic potato (Solanum tuberosum cv. MayQueen) line S1965, plasmid pUHA1, microsomal fraction
T2 sequence (P04798 1-512): T1 sequence (P04798 1-512)
Described as above. It is filed as biochemical. On the procedure: as §1, §2

For data set [3], the target named is T3, microsomal fraction of S1972 (human CYP2B6) (Homo sapiens, UniProt P20813).
T3 construct: expressed in transfected cells; host or cells: transgenic potato (Solanum tuberosum cv. MayQueen) line S1972, plasmid pUHB6, microsomal fraction
Described as above. The class given is biochemical. How it is done:
as §1, §2

Data set [4] deals with T4, microsomal fraction of S1974 (human CYP2C19) (Homo sapiens, UniProt P33261).
T4 construct: expressed in transfected cells; host or cells: transgenic potato (Solanum tuberosum cv. MayQueen) line S1974, plasmid pUHC19, microsomal fraction
The description is as above. The class given is biochemical. How it is done: as §1, §2

Data set [5] concerns the target T5, microsomal fraction of T1977 (human CYP1A1, CYP2B6, CYP2C19) (Homo sapiens, UniProt P04798).
T5 construct: expressed in transfected cells; host or cells: transgenic potato (Solanum tuberosum cv. MayQueen) line T1977, plasmid pIKBAC, microsomal fraction
T5 sequence (P04798 1-512): T1 sequence (P04798 1-512)
The data set is described as above. It is filed as biochemical. How it is done:
as §1, §2

The test system of data set [6] is seeds of Nipponbare into which the gene was not introduced. In words: Germination assay for herbicide resistance, non-introduced rice seeds. The conditions noted are these: […] metolachlor, […] alachlor, 15 μM triflurarin; after about 4 to 7 days. It is filed as in vivo, rice (Nipponbare).
The next data set addresses T6, Human CYP2B6 (Homo sapiens, UniProt P20813).
T6 sequence (P20813 1-491): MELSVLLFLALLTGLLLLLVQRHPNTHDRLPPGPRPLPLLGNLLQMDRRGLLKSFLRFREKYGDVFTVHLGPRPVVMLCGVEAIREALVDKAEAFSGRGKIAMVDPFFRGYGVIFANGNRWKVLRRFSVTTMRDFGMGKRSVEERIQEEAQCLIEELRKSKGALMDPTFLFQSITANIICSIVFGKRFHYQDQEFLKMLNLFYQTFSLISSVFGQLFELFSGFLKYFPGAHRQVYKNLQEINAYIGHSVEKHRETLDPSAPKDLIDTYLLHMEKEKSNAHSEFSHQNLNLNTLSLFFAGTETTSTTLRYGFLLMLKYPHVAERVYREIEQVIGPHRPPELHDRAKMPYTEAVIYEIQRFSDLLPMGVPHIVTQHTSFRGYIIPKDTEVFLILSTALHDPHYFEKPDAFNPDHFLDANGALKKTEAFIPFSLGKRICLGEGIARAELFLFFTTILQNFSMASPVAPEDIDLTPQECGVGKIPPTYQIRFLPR
Briefly: Metabolism of herbicides in microsomes of recombinant yeast expressing human P450. How it is done: The reaction was carried out in a range of temperature suitable for an organism from which a p450 molecular species is derived (for example, 37° C. for human P450), by mixing with air while vigorously shaking, within a period during which an enzyme is not inactivated (for example, for 10 to 60 min).
From the height of the peak, a metabolized amount can be obtained.
To 0.1 M potassium phosphate buffer (pH 7.4), the microsomal fraction prepared from each of yeast strains respectively expressing one of 11 human P450 molecular species (obtained from Sumitomo Chemical) was added so that the amount of the p450 would be 25 pmol. Furthermore, 0.5 mM NADPH, 5 mM glucose 6 phosphate, 1 U/ml glucose 6 phosphate dehydrogenase, and 0.1 mM each of the following herbicides (those available in the market were used) were added at the final concentrations thereto to make the total volume of 100 μl. The reaction mixture was shaken at 37° C. for 60 min, and an organic solvent was added thereto for the extraction. The extract was applied to the high performance liquid chromatography, and the metabolite was measured.

For a further data set, the system named is S1974 (human CYP2C19). Briefly: Herbicide tolerance assay for transformants. The class given is in vivo, Solanum tuberosum cv. MayQueen. The conditions noted are these: acetochlor 20 μmol, atrazine 1.2 μmol, metolachlor 30 μmol dispersed. The source says: Then, herbicides were dispersed.
The subject of another data set is non-transformed MayQueen. Briefly: Assay for herbicide resistance, non-transformed potato. The class given is in vivo. More on the design: key: 1: alomost dead; 2: severely inhibited growth; 3: slightly inferior growth; 4: the same growth as that when herbicide was not dispersed. The following applies: 14 days after dispersal. The source says:
4, the same growth as that when herbicide was not dispersed.

Data set [7] deals with leaves of potato individuals expressing three types of P450. In words: 7-ethoxycoumarin O-deethylation activity in leaves of kanamycin-resistant individuals. It is filed as in vivo, Solanum tuberosum cv. MayQueen. The following applies: leaves cultured with 7-ethoxycoumarin for 3 days. How it is done: Leaves of the kanamycin-resistant individuals (0.1 g) were cultured in 5 ml of a liquid medium containing 2% sucrose with 100 μl of 20 mM 7-ethoxycoumarin for 3 days. Then, the leaves were crushed in 500 μl of 0.1 M potassium phosphate buffer (pH 7.4), and chloroform was added to the supernatant and mixed. To the chloroform layer, 0.01 N NaOH/0.1 M NaCl was added, and measurement was performed at excitation wavelength of 366 nm and at emission of 452 nm with the Hitachi fluorometer. […] Each of CYP1A1-expressing individual S1965, and CYP2B6-expressing individual S1972 was selected in the same manner.

For another data set, the target named is Human CYP2C9 (Homo sapiens, UniProt P11712). Briefly: Herbicide metabolism by human P450 molecular species (microsomal fraction). The class given is in vitro ADME.
[8] abbreviates: 10 μM 7-ethoxyresorufin, means±standard deviations in three independent experiments.

T4 sequence (P33261 whole entry): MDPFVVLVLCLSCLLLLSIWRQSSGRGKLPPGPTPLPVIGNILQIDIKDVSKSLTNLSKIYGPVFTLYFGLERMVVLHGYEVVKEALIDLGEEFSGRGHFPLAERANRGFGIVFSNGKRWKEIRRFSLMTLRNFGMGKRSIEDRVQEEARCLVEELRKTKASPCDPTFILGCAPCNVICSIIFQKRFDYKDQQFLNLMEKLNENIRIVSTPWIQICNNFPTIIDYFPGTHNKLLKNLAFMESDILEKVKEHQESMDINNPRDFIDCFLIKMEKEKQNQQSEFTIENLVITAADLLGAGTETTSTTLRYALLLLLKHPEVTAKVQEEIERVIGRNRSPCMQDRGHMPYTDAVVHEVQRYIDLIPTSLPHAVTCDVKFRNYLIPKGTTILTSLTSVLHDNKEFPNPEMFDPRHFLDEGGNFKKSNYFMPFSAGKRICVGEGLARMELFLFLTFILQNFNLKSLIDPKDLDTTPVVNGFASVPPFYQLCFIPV
Sequence of Human CYP2C9 (P11712 whole entry): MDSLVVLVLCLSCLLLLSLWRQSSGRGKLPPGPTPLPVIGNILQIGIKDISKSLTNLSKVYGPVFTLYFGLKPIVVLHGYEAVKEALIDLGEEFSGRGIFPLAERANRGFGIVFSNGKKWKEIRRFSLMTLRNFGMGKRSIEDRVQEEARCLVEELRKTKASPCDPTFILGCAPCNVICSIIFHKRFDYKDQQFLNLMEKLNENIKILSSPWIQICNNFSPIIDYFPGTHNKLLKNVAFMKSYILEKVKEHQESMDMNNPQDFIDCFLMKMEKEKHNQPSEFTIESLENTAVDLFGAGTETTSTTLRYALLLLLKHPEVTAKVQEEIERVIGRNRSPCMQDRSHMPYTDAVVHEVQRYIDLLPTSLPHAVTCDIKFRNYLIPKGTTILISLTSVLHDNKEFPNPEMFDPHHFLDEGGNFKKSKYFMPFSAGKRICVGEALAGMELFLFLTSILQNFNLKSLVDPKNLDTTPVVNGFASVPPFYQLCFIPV

With `CNc1cnn(-c2cccc(C(F)(F)F)c2)c(=O)c1Cl` [norflurazon], the metabolic reaction confirmed entry at Human CYP1A1 is “N-demethylation”.

Turning to `Cc1ccc(NC(=O)N(C)C)cc1Cl` [chlorotoluron], the metabolic reaction confirmed result at Human CYP1A1 is on record as “N-demethylation, ring hydroxylation”.

On to `CCOc1ccc2nc3ccc(=O)cc-3oc2c1` [7-ethoxyresorufin], for which the “-NADPH (Inhibition rate)” value in data set [1] is listed as 82%; in [2] it was 99%; in data set [5], 99%. The results for the “CO (Inhibition rate)” value in [1], in data set [2] and in data set [5] were 45%, 77% and 76%, respectively. Further, the EROD activity in data set [1] (setting [8]) is 0.11 ± 0.01 pmol/min/mg of protein; in data set [2] (setting [8]), 5.78 ± 0.51 pmol/min/mg of protein; in data set [3] (setting [8]), 0.12 ± 0.03 pmol/min/mg of protein; in [4] (setting [8]), 0.14 ± 0.03 pmol/min/mg of protein; in data set [5] (setting [8]), 2.92 ± 0.72 pmol/min/mg of protein. Besides, the results for the “EROD activity in the absence of NADPH” value in data set [1] (-NADPH), in data set [2] (-NADPH) and in data set [5] (-NADPH) were 0.02 pmol/min/mg of protein, 0.06 pmol/min/mg of protein and 0.02 pmol/min/mg of protein, respectively. Further, the “EROD activity in the presence of carbon monoxide” value was 0.06 pmol/min/mg of protein in [1] (CO), 1.33 pmol/min/mg of protein in data set [2] (CO) and 0.69 pmol/min/mg of protein in data set [5] (CO). The “7-ethoxyresorufin O-deethylation activity, times higher than the controls” value in data set [2] is roughly 53 times; in data set [5] it was “about 27 times”. Also, the “increased 7-ethoxyresorufin O-deethylation activity” value in data set [3] and in [4] was “not observed” throughout.

Turning to `CCCN(CCC)c1c([N+](=O)[O-])cc(C(F)(F)F)cc1[N+](=O)[O-]` [triflurarin], in [6], the Germination of seeds result was “inhibited”. For the same compound, the metabolic reaction confirmed entry on Human CYP2B6 is listed as “O-demethylation”.

Consider `CCNc1nc(Cl)nc(NC(C)C)n1` [atrazine], for which the metabolic reaction confirmed result at Human CYP1A1 is listed as “N-deethylation, N-deisopropylation”. Also, the “resistance of the transformant to the herbicide” value in the data set on S1974 (human CYP2C19) is on record as “strong resistance”.

Take `CCOCN(C(=O)CCl)c1c(C)cccc1CC` [acetochlor]: the Resistance to herbicide worked out at 2 in the data set on non-transformed MayQueen (Acetochlor 5 μmol/pot), 2 in the data set on non-transformed MayQueen (Acetochlor 10 μmol/pot) and 1 in the data set with non-transformed MayQueen (Acetochlor 15 μmol/pot). In addition, in the data set on S1974 (human CYP2C19), the “resistance of the transformant to the herbicide” value is “strong resistance”.

With `CCS(=O)(=O)Oc1ccc2c(c1)C(C)(C)CO2` [benfuresate], the metabolic reaction confirmed entry on Human CYP2B6 was “O-deethylation, hydroxylation”.

Consider `CCc1cccc(CC)c1N(COC)C(=O)CCl` [alachlor], for which, in [6], the Germination of seeds entry was “inhibited”. Besides, the metabolic reaction confirmed entry on Human CYP2B6 is given as “O-deethylation, O-demethylation”.

Regarding `CO/N=C(/C)c1cccc(Oc2nc(OC)cc(OC)n2)c1C(=O)OC` [pyriminobac-methyl], the metabolic reaction confirmed entry on Human CYP1A1 is given as “hydroxylation”.

As to `CNC(=O)N(C)c1nc2ccccc2s1` [methabenzthiazuron], on Human CYP1A1, the metabolic reaction confirmed result is reported as “N-demethylation, ring hydroxylation”.

For the compound `CCOC1Oc2ccc(OS(C)(=O)=O)cc2C1(C)C` (stereo not shown) [ethofumesate], the metabolic reaction confirmed entry on Human CYP2B6 was “O-deethylation, hydroxylation”.

Take `CCOc1ccc2ccc(=O)oc2c1` [7-ethoxycoumarin]: the “7-ethoxycoumarin O-deethylation activity” value in [7] (individual T1977) and in data set [7] (individual T1979) was “higher activity than the control” in each case.

Turning to `COc1cc(OC)nc(NC(=O)NS(=O)(=O)c2c(Cl)nc3ccccn23)n1` [imazosulfuron], at Human CYP2C9, the metabolic reaction confirmed result is listed as “ring hydroxylation”.

The values are drawn from patent publication US6613961B1, “Plants capable of metabolizing drugs and use thereof” (priority 1998, dated 2003).
